This data set concerns parental CHO cells. The following applies: parental CHO cells lacking hERG ion channels; potassium-free starvation buffer; FIG. 3. On the technique in general: Block of hERG is tested as a sign of cardiac risk.

Each structure is given as a SMILES string.

Description: This protocol employs potassium free starvation buffer to depolarize cells and thereby open ion channels such that screening ion channel modulators is possible. Colorimetric resonant reflectance biosensor plates were washed with 1×PBS for hydration baseline for 3 to 5 minutes. A PWV was determined for each of the wells. […] The plates were coated with 25.0 μl/well of fibronectin for 2 hrs at room temperature. The plates were blocked for 1 hour at room temperature or overnight at 4° C. by addition of 25.0 μl ovalbumin or BSA in PBS to the wells previously coated with fibronectin.
Starvation buffers were prepared with and without potassium. For 500.0 ml potassium-free starvation buffer the following reagents were used: 25 ml of 3M NaCl for 150 mM NaCl final; 10.0 ml for 20 mM HEPES; 1.0 ml for 2 mM calcium chloride; 0.5 ml for 2 mM magnesium chloride; 1.0 ml for 5 mM D-(+)-glucose; up to 500.0 ml with H2O HPLC. Potassium starvation buffer is prepared the same as above, but with 2 mM KCl added. […]
20.0 μl of potassium-containing starvation buffer was added to each well. […] The average number of cells/well was determined. […]
PWVs are taken for the biosensor plates for 3 to 5 minutes or until a stable read of less than 1-2 pm change/minute is attained. […]

As to `COc1cc(N)c(Cl)cc1C(=O)NC1CCN(CCCOc2ccc(F)cc2)CC1OC` (stereo not shown) [Cisapride monohydrate], the “effect of the inhibitors on cell swelling in parental CHO cells (PWV)” value is reported as “little to no effect”.

Source of the values: patent publication US11016100B2, “Methods for identifying modulators of ion channels” (X-Body, Inc., priority 2007, dated 2021).
